Experimental data reported in US5488049A, “Method of treating learning and memory disorders using benzothiadiazide derivatives as nootropic agents” (FIDIA - Georgetown Institute for the Neuro-Sciences, priority 1993, dated 1996).
Entries after “also recorded” stand apart in the source; their conditions may differ. Read-outs that look alike come from different tables or passages of the source.

Key:
[1] = test system: AMPA receptors located on CAl pyramidal neuronal membranes; assay: Slow bath perfusion, whole-cell: potentiation of glutamate-elicited current (with MK-801) in CAl pyramidal neurons of hippocampal slices; assay type: cell-based, rat
Description: (§1) Young rats (12-16 days old) were decapitated and the brains quickly removed and placed in ice-cold Ringer solution. Thin slices of hippocampus (250 μm) were then cut with a vibratome slicer (Lancer, St. Louis, Mo.) and kept in Ringer solution at 37° C. until use. The experiments were carried out at room temperature with the slice totally submerged in a 1 ml volume recording chamber and under continuous perfusion with Ringer solution at a rate of 6 ml/min using an upright Hoffman modulation contrast microscope (Carl Zeiss, Germany) equipped with a 40×water immersion objective.
(§2) Media and drug application. The external Ringer solution contained (in mM): NaCl 120; KCl 3.1; CaCl2 2; MgCl2 1; KH2 PO4 1; NaHCO3 26; glucose 2.7; and it was continuously bubbled with 95% O2 and 5% CO2. Patch pipettes were filled with a solution containing (in mM): K-gluconate 140; MgCl2 1; ATP.Mg 2; EGTA 0.5; HEPES-KOH 10, pH 7.2. All the drugs under investigation were applied through the recording chamber perfusion system via parallel inputs having a common entry into the chamber. Agonist application was attained using two different systems that allowed a slow or a rapid solution change. Slow solution changes were used during recordings in whole-cell configuration and were obtained by exchanging the solution of the recording chamber within a few seconds. Fast solution changes were obtained with the use of the Y-shaped tubing method that allows complete exchange of solution in less than 10 ms, and is described in detail by Murase et al. (1989).
IDRA compounds (see above for structures) were first dissolved in 50 μl of DMSO, then […] of 1N NaOH and water (sufficient to reach a volume of 1 ml and a concentration of 10 mM). The final concentration was reached diluting the stock solution with Ringer solution.
(§3) Ionic currents in whole-cell configuration and outside-out excised membrane patches were monitored using the patch clamp technique (15).
The action diazoxide and the IDRA analogues were tested on the desensitization of AMPA receptors located on CAl pyramidal neuronal membranes in rat hippocampal slices. In order to evaluate whether the compounds under study increase the intensity of currents generated by the activation of non-NMDA receptors, these receptors were activated with glutamate in the presence of 5 μM MK-801 to block completely the ionic current elicited by glutamate acting on the NMDA receptor channels present in CAl pyramidal neurons. Three distinct methods of drug application were employed: 1) slow bath perfusion of agonist and drugs while recording in whole-cell mode (onset 30s); ii) fast application to outside-out patches of a fixed concentration of agonist with a double barrel pipette (onset<1 ms) in the presence and the absence of drugs; iii) fast perfusion (onset<6 ms) of increasing concentrations of agonist and drugs applied with the Y-tubing device to outside-out patches excised from neurons in brain slices and to voltage-clamped neurons in primary culture.
. The most efficacious (1 mM) derivative was IDRA21, which elicited a potentiation of 797±220% (n=4 cells), followed by IDRA 20 with a potentiation of 292±100% (n=4 cells) (FIG. 2). […]

rats [2] = assay: Water maze: drug action on alprazolam-disrupted learning behavior in rats; assay type: in vivo, rat; conditions: for antagonism of alprazolam amnesic effect: doses equimolar to IDRA 21 / (+) IDRA 21
Description: Rats (male 250 g b.w.) were trained two days, once a day, in maze A (See insert A). […] Rats were exposed to a new maze configuration (Maze B) in 4 successive trials 15, 30, 45, and 60 min after the i.p. injections.
(§4) The water maze apparatus was adapted from Kant et al., (16), and consists of three concentric squares placed inside a 5 ft plastic pool (FIG. 6). The walls of the maze are 50 cm in height and are constructed from black opaque plastic to allow for tracking of the animal with an overhead camera. The alleys between the walls are 16 cm wide. In the center of each wall there is a removable doorway. The opening of doorways allows for the construction of mazes with an increasing number of potential error possibilities. (See diagram for Maze A and Maze B, FIG. 6). The maze is located in a room 10'×15' at constant temperature (18° C.) adjacent to the vivarium. The room is illuminated with overhead lights which also serve as spatial cues. Additional spatial cues are provided by the position of the investigator and a number of small white x's placed within specific locations upon the walls of the maze. The maze is filled with water (18°)C. to a depth of 25 cm.
(§5) Seven days prior to drug studies, rats were tested in Maze A (forced maze) on two consecutive days. Pretesting with the "forced" maze enabled the assessment of the animals' general motor, sensory and motivational abilities, and facilitated the exclusion of those animals unable to meet pretesting criteria. Performance was assessed by determining either swim time, errors committed, or path length measured with a computerized recording device. Errors are defined as whole body entry into alleys not leading directly to the exit platform (i.e., shaded portions in FIG. 6). Rats were excluded from the study if their swim path length and/or number of errors were two standard deviations above the mean […] of the entire group. During the first two trials, the rats were placed into the center of the maze and given a maximum of 180 secs to find the "exit platform" located at the "finish" (FIG. 6). The time required, the number of errors, and the path length were recorded for each trial. […] Rats meeting the criteria were randomly divided into groups. On the day of the experiment, a single trial was run (Maze A) in order to establish a baseline of performance. Following drug administration, the rats were again tested once on Maze A to establish a baseline of post-treatment performance. Following an additional interatrial interval of 30 min., the rats were tested on Maze B.
In these experiments, rats were trained in Maze B 15, 30, 45 and 60 min. after drug injection.

rats [3] = assay: Water maze: drug action on learning and retention in rats; assay type: in vivo, rat; conditions: IDRA 21 15 mg/kg
Description: Rats (male, 250 g) were trained once a day in maze A (See FIG. 8B forced maze) for 2 consecutive days. The day of the experiment, after a first exposure to maze A, IDRA 21 (15 mg/kg) Aniracetam (500 mg/kg) or vehicle (cont) were administered per oral gavage and 30 min later the animals were exposed once again to Maze A. After 30 min of interatrial rest, rats were exposed to Maze B (see FIG. 8C open maze).
as §4, §5

[4] = test system: kainate-activated current; assay: Selectivity: ionic current elicited by 20 μM kainate; assay type: cell-based, rat; conditions: for effect on kainate-activated current: 1 mM compound, 20 μM kainate; for effect on kainate responses at doses that decreased AMPA desensitization: all doses that decrease/inhibit AMPA desensitization
Description: as §1, §2, §3

animals and humans = conditions: refs 1-3 (NMDA antagonists); refs 7-9 (aniracetam); cited from earlier work
AMPA receptor [5] = conditions: cited from earlier work
AMPA receptor [6] = assay: Fast application with double barrel pipette: AMPA receptor desensitization in outside-out patches from CAl hippocampal pyramidal neurons; assay type: cell-based, rat; conditions: 5 μM; 1 mM glutamate with 5 μM MK-801
Description: as §1, §2
Briefly, a polyethylene tubing (1 mm i.d.) is bent in a U-shaped, and another fine polyethylene tubing (50 μi.d.) and 10 mm length) is inserted into a small hole in the U-tubing making the tip of the Y-tubing. Solutions are fed to the Y-tubing by gravity, and negative pressure facilitates exchange of the solution. The tip of the Y-tubing is positioned 100 μm from the cell investigated, and upon opening and closing of a valve that controls the negative pressure, it was possible to respectively change rapidly and apply a number of different test solutions. This method was used to apply agonists to excised outside-out membrane patches. More rapid drug applications were used to apply agonists to excised outside-out membrane patches, and were obtained through a double-barrelled pipette positioned close to the recording pipette containing the membrane patch. […] The agonist was applied for a period of 150 ms and the time necessary for a complete exchange of the solution was less than 1 ms as measured at the opening of a patch pipette containing different dilutions of the drugs under study. […]
Ionic currents in whole-cell configuration and outside-out excised membrane patches were monitored using the patch clamp technique (15). […]

rats [7] = assay: Water maze: drug action on alprazolam-disrupted learning behavior in rats; assay type: in vivo, rat; conditions: oral 5 mg/kg
[8] = test system: EPSCs elicited in CAl pyramidal neurons; assay: Excitatory postsynaptic currents (EPSCs) in CAl pyramidal neurons in hippocampal slices on stimulation of Schaffer collateral afferents; assay type: cell-based, rat; conditions: in vitro; compared with (+) IDRA 21
Description: as §1, §3
Traces were filtered at 3 KHz (-3 dB, 8-pole, lowpass Bessel filter, Frequency Devices), and stored in an LSI 11/73 computer (INDEC System, Sunnyvale, Calif.) after digitization (10 KHz) with a Data Translation analog to digital converter. Decay time constants of EPSC and glutamate-activated currents were determined from exponential fitting with the 11/73 system by using an entirely automated least-squares procedures (see Vicini and Schuetze, 1985, for further details). This method uses a Simplex algorithm (Caceci and Cacheris, 1984) to fit the data to either a single or double exponential equation of the form I(t)=If exp(-t/tauf)+Is exp(-t/taus), where If and Is are the amplitudes of the sIPSC fast and slow components, and tauf and taus are their respective decay time constants. Peak amplitudes were measured at the absolute maximum of the currents, taking into account the noise of the baseline and noise around the peak. Rise times were measured as the time elapsed from 20 to 80% of the peak amplitude of the response.
The action of nootropic drugs on the excitatory postsynaptic currents (EPSCs) elicited in CAl pyramidal neurons in hippocampal slices was investigated by stimulation of the Schaffer collateral afferents.

O=S1(=O)NC(C2CC3C=CC2C3)Nc2ccc(Cl)cc21 (stereo not shown) [IDRA 23, 6-chloro-3-bicyclo[2.2.1]-hept-2-ene-3,4-dihydro-2H 1,2,4-benzothiadiazine S-S dioxide]
efficacy compared with diazoxide (potentiation of glutamate current), in words ([1]; 1 mM, 50 μM glutamate): either equally or less efficacious than diazoxide

NS(=O)(=O)c1cc2c(cc1Cl)N=CNS2(=O)=O [chlorothiazide, reference compound]
antagonism of alprazolam amnesic effect (rats [2]): inactive

COc1ccc(C(=O)N2CCCC2=O)cc1 [aniracetam]
improvement of water maze performance (rats [3]; FIG. 8A, Aniracetam 500 mg/kg oral): improve water performance in rats
significance (P) of water maze performance vs control (rats [3]; Aniracetam 500 mg/kg per oral gavage, at least 5 rats): < 0.05
effect on kainate-activated current [4]: failed to potentiate the kainate-activated current
effect on kainate responses at doses that decreased AMPA desensitization [4]: failed to affect kainate responses
effect on learning and memory (background) (animals and humans): enhancing learning and memory (nootropic action) in animals
AMPA receptor desensitization / modulation (background) (AMPA receptor [5]): attenuating AMPA receptor spontaneous desensitization
potency and duration of action (background) (AMPA receptor [5]): low potency and short lasting action
AMPA receptor desensitization / modulation (background) (AMPA receptor [5]; listed as Aniracetam): decreases AMPA receptor desensitization

CC1Nc2cc(Cl)ccc2S(=O)(=O)N1 (stereo not shown) [IDRA 20, 6-chloro-3-methyl-3,4-dihydro-2H 1,2,4-benzothiadiazine S-S dioxide]
potentiation of glutamate-elicited current ([1]; 1 mM compound, 50 μM glutamate, 5 μM MK-801, whole-cell, slow perfusion): 292±100%

NS(=O)(=O)c1cccc2c1c([N+](=O)[O-])cc1[nH]c(=O)c(=O)[nH]c12 [NBQX, 1,2,3,4-tetrahydroxy-6-nitro-2,3-dioxo-benzo-[f]quinoxaline-7-sulfonamide, reference compound]
block of transient peak and sustained plateau currents (AMPA receptor [6]): completely blocked

CC1Nc2ccc(Cl)cc2S(=O)(=O)N1 (single isomer, unassigned; (-)) [(-) IDRA 21]
prevention of alprazolam-induced amnesia (enantiomers) (rats [7]): inactive
biological activity of enantiomers (summary) (rats [2]; summary statement): inactive

CNC1(c2ccccc2Cl)CCCCC1=O (stereo not shown) [ketamine]
effect on learning and memory (background) (animals and humans): produce profound alterations in learning, disrupt memory consolidation and retrieval in animals and man

CC1=NS(=O)(=O)c2cc(Cl)ccc2N1 [diazoxide, reference compound]
effect on kainate-activated current [4]: increased the current
effect on kainate responses at doses that decreased AMPA desensitization [4]: potently potentiated kainate responses
antagonism of alprazolam amnesic effect (rats [2]): inactive; also recorded: unable to antagonize alprazolam-induced impairment of learning behavior
potentiation of glutamate current, in words ([1]; 100 μM): inactive
potentiation of glutamate-elicited current ([1]; 500 μM compound, mean±SE, N=4 cells): 152±0.2%
maximal efficacy reached, in words ([1]; 1 mM, maximal dose testable without vehicle effect): failed to reach maximal efficacy at 1 mM
potentiation of glutamate current, dose dependence ([1]; up to 1 mM): dose-dependent potentiation
efficacy in increasing excitatory synaptic strength in CAl pyramidal neurons [8]: at least as efficacious as (+) IDRA 21

C[C@]12N[C@H](Cc3ccccc31)c1ccccc12 [MK-801]
effect on learning and memory (background) (animals and humans): produce profound alterations in learning, disrupt memory consolidation and retrieval in animals and man

c1ccc(C2(N3CCCCC3)CCCCC2)cc1 [phencyclidine]
effect on learning and memory (background) (animals and humans): produce profound alterations in learning, disrupt memory consolidation and retrieval in animals and man
